Test results reported in patent publication US7838608B2, “Fluorinated surfactants for making fluoropolymers” (3M Innovative Properties Company, priority 2005, dated 2010).

Assay: Determination of bio-accumulation: urinary clearance pharmacokinetic study in rats
Settings: oral gavage, 73 micro Moles per kg body weight
Method: Determination of Bio-Accumulation
The fluorinated surfactants were evaluated for urinary clearance using a pharmacokinetic study in rats. The goal was to measure the total amount of parent compound eliminated via urinary output and estimate the rate of elimination.
The study utilized male Sprague Dawley rats, 6 to 8 weeks of age, and approximately 200 to 250 g body weight at study onset. The test compounds of table 2 were administered at a dose of 73 micro Moles per kg body weight in rats (N=3 animals per tested compound). All test compounds were prepared in sterile deionized water and given to rats via oral gavage. After test compounds administration, the rats were housed individually in metabolism cages for urine collection: 0 to 6 hours, 6 to 24 hours, 24 to 48 hours and 72 to 96 hours. Animals were observed throughout the study for clinical signs of toxicity. Gross necropsy was performed at the termination of each study (96 hours post-dose) with sera and liver samples being retained from each animal.
The concentration of the parent compound or metabolites thereof were quantitatively measured via fluorine NMR on each urine sample for each animal at each time point based on internally added standards.
T1/2 is the renal half-life and is the time required for the amount of a particular substance in a biological system to be reduced to one half of its value by biological processes when the rate of removal is approximately exponential. In these examples the value of T1/2 is calculated by exponential least squares curve fitting (y=Ae^Bx and T1/2=0.693/B) where y represents the concentration of analyte in urine and x represents time in hours.

Compound	Compound-related Effects (clinical signs of toxicity and gross necropsy at 96 hours post-dose)	% Recovery (96 h) (recovery in urine after 96 h)	T½ (renal elimination half-life) (urine measured by fluorine NMR, exponential least squares curve fitting)
N.O=C(O)C(F)(F)C(F)(F)C(F)(F)C(F)(F)C(F)(F)C(F)(F)C(F)(F)F [APFO, ammonium perfluorooctanoic acid, reference compound]	Hepatomegaly		
N.O=C(O)C(F)OC(F)(F)C(F)(F)C(F)(F)OC(F)(F)F (stereo not drawn) [Compound 3, CF3—O—CF2—CF2—CF2—O—CHF—COONH4]		95%	11 h
